Patent publication US20110183978A1, “Phenylpyri(mi)dinylazoles” (Bayer CropScience AG, priority 2009, published 2011)
Read-outs that look alike come from different tables or passages of the source.

How the values were obtained:
[1] = tested on: Puccinia recondita; test: Example F: in vivo test on Puccinia recondita (wheat brown rust); details: 240 h, wheat plants sprayed 24 hours before inoculation, scored after 10 days, read-out: % Wirkungsgrad
Protocol: In Vivo Test on Puccinia Recondita (Wheat Brown Rust) An aqueous suspension of the active substance was prepared by homogenization of a mixture of acetone/Tween/dimethyl sulphoxide and subsequent dilution with water to the desired concentration. Wheat plants (variety: Scipion) are sown in cultivation dishes on a peat-pozzolanic earth substrate (50/50) at 12° C. and sprayed at the first-leaf stage (10 cm size) with the aqueous suspension described above. As a control, plants are sprayed with an aqueous solution with no active substance. After 24 hours the plants are inoculated by spraying with an aqueous suspension of Puccinia recondita spores (100,000 spores per ml). The spores are derived from a 10 day-old infected wheat crop and are suspended in water with 2.5 ml/l Tween. […] After 10 days they are scored in comparison with the control plants.

[2] = tested on: Sphaerotheca fuliginea; test: Example L: in vivo test on Sphaerotheca fuliginea (powdery mildew on cucumber/protective); details: Podosphaera fuliginea, 168 h, cucumber, protective, assessment 7 days after inoculation, read-out: % Wirkungsgrad
Summary of the method: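 Young cucumber plants sprayed at stated dosage with compound in DMF/alkylaryl polyglycol ether emulsifier diluted in water; inoculated with S. fuliginea spores one day later. Kept in greenhouse at 70% relative humidity, 23° C; protective activity assessed 7 days after inoculation.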

[3] = tested on: Pyricularia grisea; assay type: in vivo; details: 500 ppm; rice plants sprayed 24 hours before inoculation; scored after 6 days
[4] = tested on: Alternaria solani; test: Example M: in vivo test on Alternaria solani (leaf blotch disease/tomato/protective); details: 168 h, tomato, protective, 500 ppm active substance, assessed 7 days after inoculation, read-out: % Wirkungsgrad (activity level)
Summary of the method: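 Alternaria solani infection on tomato scored 7 days post-inoculation. Before inoculation, young plants received a protective spray at the stated application dose; formulation was compound mixed with N,N-dimethylformamide and emulsifier, water-diluted.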

[5] = physchem
[6] = tested on: Peronospora parasitica; test: Example A: in vivo test on Peronospora parasitica (downy mildew on white cabbage); details: Hyaloperonospora parasitica, 120 h, cabbage plants sprayed 24 hours before inoculation, scored after 5 days, read-out: % Wirkungsgrad
Summary of the method: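 Protective spray test: inoculation with 50,000 spores/ml P. parasitica suspension followed 24 h after compound application to cotyledon-stage cabbage (variety Eminence). Plants kept moist at about 20 °C for 5 days and then rated versus controls sprayed without active substance.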

[7] = tested on: Sphaerotheca fuliginea; test: Example D: in vivo test on Sphaerotheca fuliginea (powdery mildew on cucumber); details: Podosphaera fuliginea, 288 h, cucumber plants sprayed 24 hours before inoculation, scored after 12 days, read-out: % Wirkungsgrad
Summary of the method: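 Scoring took place 12 days after spore inoculation (100,000 spores/ml, at ca. 20/25° C., 60/70% RH) and was made against plants sprayed without active substance. Inoculation followed by 24 hours a spray of water-diluted acetone/Tween/DMSO compound suspension onto Z10 cotyledon-stage cucumbers.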

[8] = tested on: Botrytis cinerea; test: Example P: in vivo test on Botrytis cinerea (gray mould on bean/protective); details: 48 h, bean, protective, 250 ppm active substance, assessed 2 days after inoculation, read-out: % Wirkungsgrad (activity level)
Summary of the method: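 Infection blotch size on leaves was scored 2 days after placing 2 Botrytis-colonised agar pieces per leaf. Inoculation followed drying of a protective spray applied to young plants at the stated dosage. Spray was prepared by diluting compound with solvent and alkylaryl polyglycol ether emulsifier in water.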

[9] = tested on: Rhynchosporium secalis; test: Example S: in vivo test on Rhynchosporium secalis (leaf scald in barley/protective); details: 336 h, barley, protective, 1000 ppm active substance, assessed 14 days after inoculation, read-out: % Wirkungsgrad (activity level)
Protocol: Solvent: 49 parts by weight N,N-dimethylacetamide Emulsifier: 1 part by weight alkylaryl polyglycol ethers For the preparation of a suitable active substance preparation, 1 part by weight of active substance is mixed with the stated quantities of solvent and emulsifier and the concentrate is diluted to the desired concentration with water. For the testing for protective activity, young plants are sprayed with the active substance preparation at the stated application dosage. After drying of the spray coating, the plants are sprayed with spores with a spore suspension of Rhynchosporium secalis. […] 14 days after the inoculation, the assessment takes place.

[10] = tested on: Rhizoctonia solani; test: Example W: in vivo test on Rhizoctonia solani (sheath blight in rice/protective); details: 96 h, rice, protective, 250 ppm active substance, assessed 4 days after inoculation, read-out: % Activity level
Summary of the method: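 Young rice plants sprayed protectively with compound in acetone/alkylaryl polyglycol ether emulsion diluted in water at stated dosage. Inoculated with R. solani hyphae one day later; disease assessed 4 days post-inoculation.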

[11] = tested on: Pyricularia oryzae; test: whole plant or invertebrate; assay type: in vivo; details: 120 h, read-out: % Activity level
[12] = tested on: Cochliobolus miyabeanus; test: Example X: in vivo test on Cochliobolus miyabeanus (brown spot disease, rice/protective); details: Bipolaris oryzae, 96 h, read-out: % Activity level
[13] = tested on: Septoria tritici; test: Example R: in vivo test on Septoria tritici (leaf blotch in wheat/protective); details: Zymoseptoria tritici, 504 h, wheat, protective, 1000 ppm active substance, assessed 21 days after inoculation, read-out: % Wirkungsgrad (activity level)
Summary of the method: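 Protective test: young wheat plants sprayed with compound in N,N-dimethylacetamide/alkylaryl polyglycol ether emulsifier diluted in water, dried, then inoculated with Septoria tritici spore suspension. Disease assessed 21 days after inoculation.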

[14] = tested on: Fusarium graminearum; test: whole plant or invertebrate; assay type: in vivo; details: in Hordeum vulgare, 120 h, read-out: % Wirkungsgrad (activity level)
[15] = tested on: Leptosphaeria nodorum; test: Example Q: in vivo test on Leptosphaeria nodorum (glume blotch in wheat/protective); details: Parastagonospora nodorum, 192 h, wheat, protective, assessment 8 days after inoculation, read-out: % Wirkungsgrad
Summary of the method: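 Protective test: young wheat plants sprayed with compound formulated in N,N-dimethylacetamide plus alkylaryl polyglycol ether emulsifier, diluted in water to the stated dose. After drying, plants inoculated with L. nodorum spore suspension; disease assessed 8 days post-inoculation.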

[16] = tested on: Venturia inaequalis; test: Example O: in vivo test on Venturia inaequalis (apple scab/protective); details: 240 h, protective, assessment 10 days after inoculation, read-out: % Wirkungsgrad
Summary of the method: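 Young plants received a preventive spray of compound formulated as an emulsifier-containing aqueous dilution at the given application rate, then were inoculated with apple scab fungus. Disease was scored 10 days post-inoculation.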

[17] = tested on: Fusarium nivale (var. majus); test: whole plant or invertebrate; assay type: in vivo; details: Microdochium nivale, in Triticum aestivum, 120 h, read-out: % Wirkungsgrad (activity level)
[18] = tested on: Gibberella zeae; assay type: in vivo; details: 250 ppm; rice, protective; assessment 5 days after inoculation
[19] = tested on: Pythium ultimum; test: Example U: in vivo test on Pythium ultimum (root rot/damping off in cotton/seed treatment); details: 50 g/dt; cotton seed treatment; emergence counted after 7 days
Protocol: The test was performed under greenhouse conditions. Cotton seeds, treated with an active compound according to the invention or a combination of active compounds according to the invention were sown in 6*6 cm size vessels, in a mixture of steamed field earth and sand (1:1). The test compound/s were dissolved in N-methyl-2-pyrrolidone and diluted to the desired concentration with water. The plants were grown at 10° C. Perlite was inoculated with mycelium from Pythium ultimum. 1 mL of the infected perlite was distributed between the treated cotton seeds. […] The assessment was made by counting the emergence.

[20] = tested on: Fusarium proliferatum; test: Example I: production of fumonisin FB1 by Fusarium proliferatum (microtitre plates); assay type: cell-based; details: 120 h
[21] = tested on: Plasmopara viticola; test: Example N: in vivo test on Plasmopara viticola (downy mildew, vine/protective); details: 144 h, vine, protective, assessment 6 days after inoculation, read-out: % Wirkungsgrad
Summary of the method: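 Assessment of downy mildew on vines took place 6 days post-inoculation, after 1 day of moist incubation. Before infection, the young plants received a protective spray of compound emulsified with alkylaryl polyglycol ethers and diluted with water to the stated application rate.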

[22] = tested on: Fusarium graminearum; test: microbe, parasite or virus in culture; assay type: cell-based

CCC(C)n1cc(-c2ccncc2)c(-c2ccc(F)cc2)n1 (stereo not drawn) [Compound 91]
pest or weed control at 500 ppm [1]: 94%
pest or weed control at 500 ppm [2]: 100%
% Activity level [3]: 75%
pest or weed control at 500 ppm [4]: 95%
chromatographic logP ([5]; LogPA (logP of the stated pure compound or, in a mixture, of the main isomer, 1-substituted 3-aryl-1H-pyrazole)): 1.5
pest or weed control at 500 ppm [6]: 89%
pest or weed control at 500 ppm [7]: 88%

CCC(=O)Nc1cc(-c2cn(CC)nc2-c2ccc(F)cc2)ccn1 [Compound 198]
pest or weed control at 250 ppm [8]: 99%
pest or weed control at 1000 ppm [9]: 90%
pest or weed control at 250 ppm [10]: 88%
pest or weed control at 250 ppm [11]: 85%
pest or weed control at 250 ppm [12]: 90%
pest or weed control at 1000 ppm [13]: 100%
pest or weed control at 1000 ppm [14]: 100%
pest or weed control at 1000 ppm [15]: 100%
pest or weed control at 100 ppm [16]: 96%
pest or weed control at 500 ppm [2]: 99%
pest or weed control at 1000 ppm [17]: 100%
% Activity level [18]: 80%
% Activity level [19]: 88%
inhibition at 50 µM ([20]; Fusarium proliferatum growth, OD 620, 5 days, read-out: % Inhibition des Pilzwachstums bei 50 μM): 99%
inhibition at 50 µM ([20]; Fusarium proliferatum, 5 days at 20° C., HPLC-MS/MS, read-out: % Inhibition der FB1 produktion bei 50 μM): 100%
pest or weed control at 100 ppm [21]: 92%
inhibition at 50 µM ([22]; 72 h, read-out: % Inhibition des Pilzwachstums bei 50 μM): 100%
inhibition at 50 µM ([22]; 168 h, read-out: % Inhibition der DON/AcDON produktion bei 50 μM): 100%
pest or weed control at 500 ppm [4]: 93%
chromatographic logP ([5]; LogPA): 1.82
